According to patent US8586768B2, “Design, synthesis and functional characterization of rottlerin analogs” (priority 2009, dated 2013):

Tests used:
Assay in all cases: In-vitro kinase profiling, radioisotope screening assay (Signal Chem)
Format in all cases: biochemical
[1] = target: T1, AKT1 (Homo sapiens, UniProt P31749); settings: for % activity change: 5 μM compound, 50 μM ATP, vs vehicle control, negative = inhibition
T1 construct: purchased Signal Chem (Richmond, BC, Canada)
Method: (§1) Kinase profiling of PK analogs. The inhibitory effect of lead PK analogs were tested against a panel of 15 protein kinase targets (TABLE 1) to develop better lead candidates without “off” target effects. The selectivity assay was performed at Signal Chem™ (Richmond, BC, Canada) by profiling against protein kinase targets using the “Gold Standard” radioisotope screening assay format. This assay format gave the highest signal noise ratio and allowed the direct measurement of catalytic activity of a protein kinase.
(§2) All assays were performed in triplicate in a 96-well assay format and the % error between triplicates is <10%. Protein kinase assays was performed in the presence of 50 μM ATP at 30° C. for 15 min. The activity of the enzymes in the presence of 5 μM PK analogs was compared to that in the vehicle control and expressed as a percent change in activity relative to that observed in the vehicle control. In TABLE 1, the results are expressed as percent activity change compared to control. The intra-assay variability was determined to be less than 10%. Inhibition of target activity by the compound is shown by a negative value, while activation of target activity is shown by positive value, with values >10% considered to be highly significant.

[2] = target: T2, ASK1 (Homo sapiens, UniProt Q99683); settings: 5 μM compound, 50 μM ATP, vs vehicle control; negative = inhibition
T2 construct: purchased Signal Chem (Richmond, BC, Canada)
T2 sequence (Q99683 1-1374): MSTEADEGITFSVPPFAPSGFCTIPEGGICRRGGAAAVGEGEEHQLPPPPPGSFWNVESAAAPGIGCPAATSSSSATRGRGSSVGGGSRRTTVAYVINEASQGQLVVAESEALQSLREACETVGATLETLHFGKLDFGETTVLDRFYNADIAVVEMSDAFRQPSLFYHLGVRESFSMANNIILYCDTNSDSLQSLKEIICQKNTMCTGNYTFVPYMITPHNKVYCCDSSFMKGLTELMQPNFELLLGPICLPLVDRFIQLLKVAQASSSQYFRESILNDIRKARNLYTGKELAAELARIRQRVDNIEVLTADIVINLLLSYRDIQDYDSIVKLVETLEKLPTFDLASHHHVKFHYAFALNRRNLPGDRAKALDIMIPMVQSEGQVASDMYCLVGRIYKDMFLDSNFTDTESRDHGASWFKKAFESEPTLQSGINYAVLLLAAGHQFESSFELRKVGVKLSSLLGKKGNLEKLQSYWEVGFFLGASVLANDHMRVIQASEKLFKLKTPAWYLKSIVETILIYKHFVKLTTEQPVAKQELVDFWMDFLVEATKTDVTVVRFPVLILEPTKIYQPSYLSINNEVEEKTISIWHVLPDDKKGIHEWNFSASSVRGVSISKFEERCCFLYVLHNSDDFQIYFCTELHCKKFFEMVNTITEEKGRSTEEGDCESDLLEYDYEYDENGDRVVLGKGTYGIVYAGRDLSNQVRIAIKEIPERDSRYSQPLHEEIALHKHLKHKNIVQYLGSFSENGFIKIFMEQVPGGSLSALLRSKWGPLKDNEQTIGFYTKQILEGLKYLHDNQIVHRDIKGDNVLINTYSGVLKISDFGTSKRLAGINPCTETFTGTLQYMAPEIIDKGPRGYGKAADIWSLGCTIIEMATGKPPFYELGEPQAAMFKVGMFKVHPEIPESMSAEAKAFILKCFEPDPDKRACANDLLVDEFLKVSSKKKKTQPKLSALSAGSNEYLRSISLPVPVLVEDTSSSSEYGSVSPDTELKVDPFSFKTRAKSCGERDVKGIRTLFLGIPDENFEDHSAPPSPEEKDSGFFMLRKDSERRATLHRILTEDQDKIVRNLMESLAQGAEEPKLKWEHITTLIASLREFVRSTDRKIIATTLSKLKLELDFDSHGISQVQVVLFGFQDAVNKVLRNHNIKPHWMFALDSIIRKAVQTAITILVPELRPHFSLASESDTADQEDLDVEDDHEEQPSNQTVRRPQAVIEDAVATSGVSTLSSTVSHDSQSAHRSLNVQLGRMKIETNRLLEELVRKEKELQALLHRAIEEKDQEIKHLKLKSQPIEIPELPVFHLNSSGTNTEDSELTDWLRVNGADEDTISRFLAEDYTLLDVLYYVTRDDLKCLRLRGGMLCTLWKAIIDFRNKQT
Method: as §1, §2

[3] = target: T3, JNK3 (Homo sapiens, UniProt P53779); settings: for % activity change: 5 μM compound, 50 μM ATP, vs vehicle control, negative = inhibition; for inhibited by % compared to control: 5 μM concentration, given as positive inhibition
T3 construct: purchased Signal Chem (Richmond, BC, Canada)
Method: as §1, §2

[4] = target: T4, P13K (p110b/p85a) (Homo sapiens, UniProt P42338); settings: 5 μM compound, 50 μM ATP, vs vehicle control; negative = inhibition
T4 construct: purchased Signal Chem (Richmond, BC, Canada)
Method: as §1, §2

[5] = target: T5, PKCα (Homo sapiens, UniProt P17252); settings: 5 μM compound, 50 μM ATP, vs vehicle control; negative = inhibition
T5 construct: purchased Signal Chem (Richmond, BC, Canada)
Method: as §1, §2

[6] = target: T6, PKCβ (Homo sapiens, UniProt P05771); settings: 5 μM compound, 50 μM ATP, vs vehicle control; negative = inhibition
T6 construct: purchased Signal Chem (Richmond, BC, Canada)
Method: as §1, §2

[7] = target: T7, PKCγ (Homo sapiens, UniProt P05129); settings: 5 μM compound, 50 μM ATP, vs vehicle control; negative = inhibition
T7 construct: purchased Signal Chem (Richmond, BC, Canada)
Method: as §1, §2

[8] = target: T8, PKCη (Homo sapiens, UniProt P24723); settings: 5 μM compound, 50 μM ATP, vs vehicle control; negative = inhibition
T8 construct: purchased Signal Chem (Richmond, BC, Canada)
Method: as §1, §2

T6 sequence (P05771 whole entry): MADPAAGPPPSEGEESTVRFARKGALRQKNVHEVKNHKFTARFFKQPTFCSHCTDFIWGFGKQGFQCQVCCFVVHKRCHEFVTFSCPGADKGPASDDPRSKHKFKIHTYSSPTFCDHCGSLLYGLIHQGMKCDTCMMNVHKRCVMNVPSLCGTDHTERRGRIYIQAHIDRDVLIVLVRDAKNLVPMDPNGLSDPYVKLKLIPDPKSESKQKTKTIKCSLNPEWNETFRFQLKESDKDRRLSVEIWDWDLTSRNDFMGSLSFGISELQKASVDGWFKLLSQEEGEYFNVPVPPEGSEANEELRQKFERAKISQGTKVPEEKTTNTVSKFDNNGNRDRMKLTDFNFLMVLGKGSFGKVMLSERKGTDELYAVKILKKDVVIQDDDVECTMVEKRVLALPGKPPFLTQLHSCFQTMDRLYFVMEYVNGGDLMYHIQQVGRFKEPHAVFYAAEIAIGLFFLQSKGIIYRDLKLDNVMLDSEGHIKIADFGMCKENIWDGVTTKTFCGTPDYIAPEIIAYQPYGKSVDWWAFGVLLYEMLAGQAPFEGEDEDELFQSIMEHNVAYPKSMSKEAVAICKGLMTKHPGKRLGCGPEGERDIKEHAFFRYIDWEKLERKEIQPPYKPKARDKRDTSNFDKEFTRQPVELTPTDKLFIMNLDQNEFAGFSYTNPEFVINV
T8 sequence (P24723 whole entry): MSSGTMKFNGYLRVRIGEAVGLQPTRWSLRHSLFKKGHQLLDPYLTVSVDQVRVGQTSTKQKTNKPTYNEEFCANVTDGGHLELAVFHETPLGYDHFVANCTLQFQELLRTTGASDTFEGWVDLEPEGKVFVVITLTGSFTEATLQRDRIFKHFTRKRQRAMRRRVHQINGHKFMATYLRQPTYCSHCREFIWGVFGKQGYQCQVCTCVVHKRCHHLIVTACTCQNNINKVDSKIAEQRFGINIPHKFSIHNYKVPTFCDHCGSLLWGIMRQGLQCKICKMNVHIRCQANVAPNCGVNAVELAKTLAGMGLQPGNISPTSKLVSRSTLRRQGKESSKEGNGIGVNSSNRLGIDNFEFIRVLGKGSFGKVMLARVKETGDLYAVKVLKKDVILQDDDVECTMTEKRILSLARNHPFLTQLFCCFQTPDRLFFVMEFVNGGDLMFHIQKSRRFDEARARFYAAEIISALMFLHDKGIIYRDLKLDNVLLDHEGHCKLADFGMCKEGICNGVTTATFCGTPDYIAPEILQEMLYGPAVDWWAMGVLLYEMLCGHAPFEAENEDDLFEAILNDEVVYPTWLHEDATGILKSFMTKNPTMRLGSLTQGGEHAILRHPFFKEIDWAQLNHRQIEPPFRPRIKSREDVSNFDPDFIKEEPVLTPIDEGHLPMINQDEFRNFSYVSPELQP
T3 sequence (P53779 whole entry): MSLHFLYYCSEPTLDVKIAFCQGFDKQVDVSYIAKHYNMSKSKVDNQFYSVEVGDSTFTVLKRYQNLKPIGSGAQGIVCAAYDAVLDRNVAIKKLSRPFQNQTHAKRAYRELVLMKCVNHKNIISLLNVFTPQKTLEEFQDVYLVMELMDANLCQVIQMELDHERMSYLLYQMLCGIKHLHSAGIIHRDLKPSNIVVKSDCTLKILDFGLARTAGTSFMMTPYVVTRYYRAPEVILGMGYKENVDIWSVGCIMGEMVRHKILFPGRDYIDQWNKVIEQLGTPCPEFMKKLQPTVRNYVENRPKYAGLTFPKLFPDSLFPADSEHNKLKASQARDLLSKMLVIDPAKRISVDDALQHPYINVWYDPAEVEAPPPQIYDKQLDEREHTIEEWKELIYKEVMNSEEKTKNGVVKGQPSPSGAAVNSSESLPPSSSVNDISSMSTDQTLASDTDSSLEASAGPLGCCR
T4 sequence (P42338 whole entry, stated change not applied): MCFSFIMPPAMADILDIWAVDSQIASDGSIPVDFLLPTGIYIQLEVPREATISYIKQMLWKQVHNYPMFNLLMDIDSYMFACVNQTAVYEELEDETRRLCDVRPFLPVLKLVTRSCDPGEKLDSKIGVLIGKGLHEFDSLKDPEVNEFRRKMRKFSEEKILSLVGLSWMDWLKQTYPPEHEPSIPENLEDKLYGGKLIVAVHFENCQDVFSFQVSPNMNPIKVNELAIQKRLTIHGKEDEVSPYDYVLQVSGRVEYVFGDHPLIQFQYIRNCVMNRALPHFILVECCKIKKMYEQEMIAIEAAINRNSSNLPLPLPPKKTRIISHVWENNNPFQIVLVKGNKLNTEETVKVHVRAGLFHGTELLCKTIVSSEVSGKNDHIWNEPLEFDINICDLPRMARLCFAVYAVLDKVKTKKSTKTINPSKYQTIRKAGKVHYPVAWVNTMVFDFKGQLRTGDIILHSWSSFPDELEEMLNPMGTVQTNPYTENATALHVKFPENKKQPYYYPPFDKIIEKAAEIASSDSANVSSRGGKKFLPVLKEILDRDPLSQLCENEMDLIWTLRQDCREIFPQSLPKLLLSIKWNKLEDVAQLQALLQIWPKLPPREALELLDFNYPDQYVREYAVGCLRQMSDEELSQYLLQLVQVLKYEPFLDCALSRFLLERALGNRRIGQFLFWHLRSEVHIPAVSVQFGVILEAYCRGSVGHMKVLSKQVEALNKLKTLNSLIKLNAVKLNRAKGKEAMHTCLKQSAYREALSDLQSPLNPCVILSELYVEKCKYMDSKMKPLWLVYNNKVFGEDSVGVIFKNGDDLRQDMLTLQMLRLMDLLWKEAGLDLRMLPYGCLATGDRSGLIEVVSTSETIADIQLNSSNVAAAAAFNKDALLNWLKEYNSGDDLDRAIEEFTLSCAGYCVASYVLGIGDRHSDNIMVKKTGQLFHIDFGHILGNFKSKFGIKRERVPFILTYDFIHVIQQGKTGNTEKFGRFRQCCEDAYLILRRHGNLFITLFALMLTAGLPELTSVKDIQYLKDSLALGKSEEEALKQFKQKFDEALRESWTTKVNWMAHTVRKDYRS
T4 sequence (P27986 2-724 partner): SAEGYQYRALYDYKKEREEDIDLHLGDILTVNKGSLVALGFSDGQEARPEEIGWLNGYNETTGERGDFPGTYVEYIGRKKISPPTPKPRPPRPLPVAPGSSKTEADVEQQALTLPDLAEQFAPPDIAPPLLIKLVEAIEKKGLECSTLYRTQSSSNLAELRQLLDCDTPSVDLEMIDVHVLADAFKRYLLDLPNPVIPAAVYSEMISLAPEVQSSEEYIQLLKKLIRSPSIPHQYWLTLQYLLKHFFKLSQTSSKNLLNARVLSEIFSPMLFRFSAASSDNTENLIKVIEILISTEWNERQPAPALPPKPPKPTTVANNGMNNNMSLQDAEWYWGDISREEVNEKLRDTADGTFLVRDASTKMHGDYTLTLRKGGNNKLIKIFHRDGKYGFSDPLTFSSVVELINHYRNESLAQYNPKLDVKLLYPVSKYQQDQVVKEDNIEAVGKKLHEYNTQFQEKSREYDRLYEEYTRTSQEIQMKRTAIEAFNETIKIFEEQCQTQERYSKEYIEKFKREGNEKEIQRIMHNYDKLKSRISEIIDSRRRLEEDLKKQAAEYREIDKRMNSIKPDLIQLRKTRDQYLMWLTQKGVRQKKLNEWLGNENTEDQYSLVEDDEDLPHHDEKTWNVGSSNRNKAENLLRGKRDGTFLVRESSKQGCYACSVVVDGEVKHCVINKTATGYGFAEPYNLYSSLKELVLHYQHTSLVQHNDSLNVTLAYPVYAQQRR
T1 sequence (P31749 whole entry): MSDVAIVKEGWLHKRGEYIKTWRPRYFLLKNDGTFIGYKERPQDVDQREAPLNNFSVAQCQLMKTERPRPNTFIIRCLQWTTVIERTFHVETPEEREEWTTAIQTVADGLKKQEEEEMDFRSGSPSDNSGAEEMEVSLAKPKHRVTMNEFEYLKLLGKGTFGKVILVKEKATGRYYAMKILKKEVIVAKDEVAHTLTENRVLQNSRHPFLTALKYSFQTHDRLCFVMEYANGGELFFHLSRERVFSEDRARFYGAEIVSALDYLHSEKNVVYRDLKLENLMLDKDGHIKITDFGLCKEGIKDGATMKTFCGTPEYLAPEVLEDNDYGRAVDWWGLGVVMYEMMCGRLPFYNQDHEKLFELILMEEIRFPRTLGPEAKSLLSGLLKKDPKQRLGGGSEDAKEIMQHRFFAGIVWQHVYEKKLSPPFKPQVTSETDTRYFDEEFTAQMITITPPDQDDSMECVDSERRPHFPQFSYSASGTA

| Structure (SMILES) | % activity change [1] | % activity change [2] | % activity change [3] | inhibited by % compared to control [3] | % activity change [4] | % activity change [5] | % activity change [6] | % activity change [7] | % activity change [8] | inhibited by % compared to control ([1]; 5 μM concentration, given as positive inhibition) | inhibition at 5 µM ([1]; 5 μM concentration, given as positive inhibition, read-out: inhibited by % compared to control) |
| --- | --- | --- | --- | --- | --- | --- | --- | --- | --- | --- | --- |
| Oc1cc(O)c(Cc2c(O)cc(O)cc2O)c(O)c1 [PK103] | −6% | 0% | −12% | 12% | −6% | −1% | 3% | 9% | 7% |  |  |
| CC(=O)c1c(O)c(C)c(O)c(Cc2c(O)c3c(c4c2OC(c2ccccc2)CC4=O)OC(C)(C)C=C3)c1O (stereo not drawn) [PK202] | −12% | 4% | −12% | 12% | −2% | 9% | 1% | 1% | 15% | 12% |  |
| CC1(C)C=Cc2c(O)cc(O)c(C(=O)/C=C/c3ccccc3)c2O1 [PK302] | −10% | 0% | −10% |  | −8% | 13% | 6% | 32% | 19% |  |  |
| CC(=O)c1c(O)c(C)c(O)c(Cc2c(O)c3c(c(C(=O)/C=C/c4ccccc4)c2O)OC(C)(C)C=C3)c1O [Rottlerin, (E)-1-[6-[(3-acetyl-2,4,6-trihydroxy-5-methylphenyl)methyl]-5,7-dihydroxy-2,2-dimethylchromen-8-yl]-3-phenylprop-2-en-1-one] | −14% | 2% | 7% |  | −10% | −7% | 0% | 6% | 12% |  | 14% |
